We go through one molecule from US20040204368A1, “Oxadiazole derivative compounds and drugs containing these compounds as the active ingredient” (priority 2001, published 2004).

In the experiment the target is T1, Cathepsin K (Homo sapiens, UniProt P43235).
T1 sequence (P43235 115-329): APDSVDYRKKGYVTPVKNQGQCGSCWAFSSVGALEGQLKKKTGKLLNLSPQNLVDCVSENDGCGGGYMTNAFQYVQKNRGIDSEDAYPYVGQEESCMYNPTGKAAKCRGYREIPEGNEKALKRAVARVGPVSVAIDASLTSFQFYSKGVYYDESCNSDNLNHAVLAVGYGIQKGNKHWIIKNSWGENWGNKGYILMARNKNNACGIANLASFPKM
Put plainly: Measurement of cathepsin K inhibitory activity. It is filed as biochemical. As to conditions: Dixon plot, pH 5.5, 37° C. The protocol:
(i) Measurement of Cathepsin K Inhibitory Activity
65 μL of Cathepsin K enzyme reaction buffer (50 mmol/L of 2-(N-morpholino)ethanesulfonate, 2 mmol/L of ethylene diamine tetraacetate (EDTA) and 4 mmol/L of dithio threitol (DTT) were mixed to adjust to pH 5.5), 5 μL of cysteine protease inhibitor solution of several concentrations, 20 μL of synthesized substrate (t-butyloxycarbonyl-L-alanyl-glycyl-L-prolyl-L-arginine-4-methyl-chromanyl-7-amide) solution of several concentrations and 10 μL of cathepsin K enzyme solution were mixed and the increase of fluorescence intensity when reacted at 37° C. was measured (Ex (excitation wavelength)=355 nm, Em (fluorescence wavelength)=460 nm). As to the substrate and the compound of the present invention, enzyme reactions were carried out in combination of several appropriate concentrations and Dixon plotting was prepared, to define the absolute value of X-coordinate of the intersection point of the graph as Ki value.

The structures appear in SMILES notation.

Broadly, the Ki is a dissociation constant, usually derived from enzyme kinetics or from competition with a known ligand. As to `CC(C)CC(NC(=O)C1CCCCCC1)C(=O)c1nnc(SCCN(C)C)o1` (stereo not shown) [example 1], the inhibition constant (Ki) turned out to be 48 nM.
